Laboratory results as given in patent publication US6884799B2, “Non-cross-linking pyrrolo[2,1-c][1,4]benzodiazepines and process thereof” (Council of Scientific and Industrial Research, priority 2003, dated 2005).

Experiments:
Type in all cases: cell-based
[1] = tested on: sixty human tumour cells derived from nine cancer types; assay: cells; conditions: for GI50 / CC50: Homo sapiens, 48 h; for GI50: read-out: Log10 GI50 mean graph midpoint (MG_MID) (converted); for CC50: read-out: Log10 LC50 mean graph midpoint (MG_MID) (converted); for Log10 TGI mean graph midpoint (MG_MID): total cell growth inhibition (0% growth), 48 h continuous drug exposure, SRB
Experimental: (§1) Biological Activity. In vitro biological activity studies were carried out at National Cancer Institute (USA).
(§2) Cytotoxicity. Compounds Va and Vc were evaluated in vitro against sixty human tumour cells derived from nine cancer types (leukemia, non-small-cell lung, colon, CNS, melanoma, ovarian, prostate, and breast cancer). For each compound, dose response curves for each cell line were measured at a minimum of five concentrations at 10 fold dilutions. A protocol of 48 h continuous drug exposure was used, and a sulforhodamine B (SRB) protein assay was used to estimate cell viability or growth. The concentration causing 50% cell growth inhibition (GI50), total cell growth inhibition (TGI 0% growth) and 50% cell death (LC50, −50% growth) compared with the control was calculated.

[2] = tested on: leukemia cancer cell lines; assay: NCI in vitro cytotoxicity, SRB assay, leukemia panel; conditions: Homo sapiens, read-out: Log LC50 (concentration in mol/L causing 50% lethality) (converted)
Experimental: as §1, §2
(§3) Each cancer type represents the average of six to eight different cancer cell lines.

[3] = tested on: non-small-cell lung cancer cell lines; assay: NCI in vitro cytotoxicity, SRB assay, non-small-cell lung panel; conditions: Homo sapiens, read-out: Log LC50 (concentration in mol/L causing 50% lethality) (converted)
Experimental: as §1, §2, §3

colon cancer cell lines = assay: NCI in vitro cytotoxicity, SRB assay, colon panel; conditions: Homo sapiens, read-out: Log LC50 (concentration in mol/L causing 50% lethality) (converted)
Experimental: as §1, §2, §3

CNS cancer cell lines = assay: NCI in vitro cytotoxicity, SRB assay, CNS panel; conditions: Homo sapiens, read-out: Log LC50 (concentration in mol/L causing 50% lethality) (converted)
Experimental: as §1, §2, §3

[4] = tested on: melanoma cancer cell lines; assay: NCI in vitro cytotoxicity, SRB assay, melanoma panel; conditions: Homo sapiens, read-out: Log LC50 (concentration in mol/L causing 50% lethality) (converted)
Experimental: as §1, §2, §3

[5] = tested on: ovarian cancer cell lines; assay: NCI in vitro cytotoxicity, SRB assay, ovarian panel; conditions: Homo sapiens, read-out: Log LC50 (concentration in mol/L causing 50% lethality) (converted)
Experimental: as §1, §2, §3

renal cancer cell lines = assay: NCI in vitro cytotoxicity, SRB assay, renal panel; conditions: Homo sapiens, read-out: Log LC50 (concentration in mol/L causing 50% lethality) (converted)
Experimental: as §1, §2, §3

[6] = tested on: prostate cancer cell lines; assay: NCI in vitro cytotoxicity, SRB assay, prostate panel; conditions: Homo sapiens, read-out: Log LC50 (concentration in mol/L causing 50% lethality) (converted)
Experimental: as §1, §2, §3

Breast cancer cell lines = assay: NCI in vitro cytotoxicity, SRB assay, breast panel; conditions: Homo sapiens, read-out: Log LC50 (concentration in mol/L causing 50% lethality) (converted)
Experimental: as §1, §2, §3

| Structure (SMILES) | cytotoxic / anticancer activity in words [1] | GI50 [1] [µM] | CC50 [1] [µM] | Log10 TGI mean graph midpoint (MG_MID) [1] | CC50 [2] [µM] | CC50 [3] [µM] | CC50 (colon cancer cell lines) [µM] | CC50 (CNS cancer cell lines) [µM] | CC50 [4] [µM] | CC50 [5] [µM] | CC50 (renal cancer cell lines) [µM] | CC50 [6] [µM] | CC50 (Breast cancer cell lines) [µM] |
| --- | --- | --- | --- | --- | --- | --- | --- | --- | --- | --- | --- | --- | --- |
| COc1cc2c(cc1OCCCOc1cc3c(cc1OC)C(=O)N1CCC[C@H]1CN3)N=C[C@@H]1CCCN1C2=O [Compound Va, 7-Methoxy-8-{3-[7-methoxy-(11aS)-1,2,3,10,11,11a-hexahydro-5H-pyrrolo[2,1-c][1,4]benzodiazepine-5-one-8-yloxy]propoxy}-(11aS)-1,2,3,11a-tetrahydro-5H-pyrrolo[2,1-c][1,4]benzodiazepine-5-one] | slightly higher activity | 0.158 | 33.1 | −5.73 | 83.2 | 38.9 | 25.7 | 32.4 | 3.55 | 70.8 | 63.1 | 83.2 | 43.7 |
| COc1cc2c(cc1OCCCCCOc1cc3c(cc1OC)C(=O)N1CCC[C@H]1CN3)N=C[C@@H]1CCCN1C2=O [Compound Vc, 7-Methoxy-8-{5-[7-methoxy-(11aS)-1,2,3,10,11,11a-hexahydro-5H-pyrrolo[2,1-c][1,4]benzodiazepine-5-one-8-yloxy]pentyloxy}-(11aS)-1,2,3,11a-tetrahydro-5H-pyrrolo[2,1-c][1,4]benzodiazepine-5-one] | interesting profile of activity and selectivity for various cell lines | 5.13 | 70.8 | −4.55 | 34.7 | 72.4 | 91.2 | 81.3 | 38 | 97.7 | 95.5 | ≥ 100 | 89.1 |
